Experimental data published in ChEMBL document CHEMBL1201862, “PubChem BioAssay data set” (2004).
The source made the active and inactive calls.

How the values were obtained:
Escherichia coli = experiment: microbe, parasite or virus in culture
HEK293 [1] = experiment: cells; settings: Homo sapiens
[2] = target: T1, Nucleotide-binding oligomerization domain-containing protein 1 (Homo sapiens, UniProt Q9Y239); experiment: NOD1 signaling inhibitors, SAR follow-up, revised (AID 2333); assay type: functional
T1 sequence (Q9Y239 whole entry): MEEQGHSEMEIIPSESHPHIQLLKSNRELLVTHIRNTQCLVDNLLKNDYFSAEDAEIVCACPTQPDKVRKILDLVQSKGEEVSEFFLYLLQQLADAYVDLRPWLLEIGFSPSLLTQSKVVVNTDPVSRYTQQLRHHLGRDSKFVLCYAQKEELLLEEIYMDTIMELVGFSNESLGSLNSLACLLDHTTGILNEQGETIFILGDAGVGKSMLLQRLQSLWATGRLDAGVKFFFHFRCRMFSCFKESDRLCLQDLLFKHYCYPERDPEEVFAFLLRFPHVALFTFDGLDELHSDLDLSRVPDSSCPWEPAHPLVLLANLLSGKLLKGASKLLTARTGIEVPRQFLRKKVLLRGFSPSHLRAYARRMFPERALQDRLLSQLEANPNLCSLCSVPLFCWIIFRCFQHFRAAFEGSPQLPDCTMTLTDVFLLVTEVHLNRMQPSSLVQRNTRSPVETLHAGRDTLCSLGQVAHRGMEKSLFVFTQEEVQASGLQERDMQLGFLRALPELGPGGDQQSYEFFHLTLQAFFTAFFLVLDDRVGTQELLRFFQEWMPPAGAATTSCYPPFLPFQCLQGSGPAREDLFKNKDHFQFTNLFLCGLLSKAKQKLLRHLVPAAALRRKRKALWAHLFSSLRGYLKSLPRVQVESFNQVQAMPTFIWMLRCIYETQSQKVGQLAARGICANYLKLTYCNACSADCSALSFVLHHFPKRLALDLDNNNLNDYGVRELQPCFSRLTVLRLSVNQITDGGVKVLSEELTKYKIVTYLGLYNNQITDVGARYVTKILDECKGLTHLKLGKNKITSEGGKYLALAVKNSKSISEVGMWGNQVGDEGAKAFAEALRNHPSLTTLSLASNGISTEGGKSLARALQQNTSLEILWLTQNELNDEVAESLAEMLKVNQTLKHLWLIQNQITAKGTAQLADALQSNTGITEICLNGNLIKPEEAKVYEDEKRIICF

[3] = target: Nucleotide-binding oligomerization domain-containing protein 2 (Homo sapiens, UniProt Q9HC29); experiment: NOD2 signaling inhibitors, cell-based, luminescence, uHTS, HEK293 (AID 1566); assay type: functional
HEK293 [4] = experiment: NOD2 signaling inhibitors in MDP-stimulated cells, cell-based, uHTS, luminescence (AID 2001); assay type: functional; settings: Homo sapiens
HEK293 [5] = experiment: NOD1 signaling inhibitors, primary screen, cell-based, luminescence, uHTS (AID 1578); assay type: functional; settings: Homo sapiens
HEK293 [6] = experiment: cells; assay type: functional, cell-based; settings: Homo sapiens
Tumor necrosis factor = Tumor necrosis factor (Homo sapiens, UniProt P01375); experiment: TNFa-triggered NF-kB activation inhibitors, SAR follow-up, cell-based, revised (AID 2337); assay type: functional
HEK293 [7] = experiment: cells; assay type: functional, cell-based; settings: Homo sapiens; remark: listed apart in the source
[8] = cytotoxicity in HEK-293T cells, dose response, cytotoxicity control for TCR NF-kB inhibitor project, luminescence, T-cell screen hits (AID 489026); assay type: functional, cell-based;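 also: cells exposed to compound about 14 hours before the viability readout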
HEK293 [9] = experiment: cells; assay type: functional, cell-based; settings: Homo sapiens; remark: listed apart in the source
[10] = target: T2, Heat shock factor protein 1 (Mus musculus, UniProt P38532); experiment: inhibition of MG132-induced HSE-luciferase signal, confirmation, cell-based, NIH3T3, luminescence, dose retest (AID 2382); assay type: functional;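 also: NIH3T3 fibroblasts with HSF1-driven luciferase reporter stressed by proteasome inhibitor MG132; luminescence from HSF1-driven luciferase expression after 8 hours of MG132 stress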
T2 sequence (P38532 whole entry): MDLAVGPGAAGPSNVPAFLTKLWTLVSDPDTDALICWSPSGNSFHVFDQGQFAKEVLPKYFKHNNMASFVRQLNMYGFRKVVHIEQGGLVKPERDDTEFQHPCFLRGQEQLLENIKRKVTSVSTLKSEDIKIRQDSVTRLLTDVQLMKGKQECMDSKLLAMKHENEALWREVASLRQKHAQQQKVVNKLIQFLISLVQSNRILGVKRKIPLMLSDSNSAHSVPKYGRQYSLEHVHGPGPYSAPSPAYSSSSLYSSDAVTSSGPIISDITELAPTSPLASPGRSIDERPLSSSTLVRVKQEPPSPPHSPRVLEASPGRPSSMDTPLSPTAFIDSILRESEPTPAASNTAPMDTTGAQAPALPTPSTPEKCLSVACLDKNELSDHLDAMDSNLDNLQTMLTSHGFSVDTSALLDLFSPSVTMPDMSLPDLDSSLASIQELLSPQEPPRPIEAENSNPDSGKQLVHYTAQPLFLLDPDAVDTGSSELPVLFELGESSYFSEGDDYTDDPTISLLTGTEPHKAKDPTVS

[11] = target: T3, High affinity choline transporter 1 (Homo sapiens, UniProt Q9GZV3); experiment: CHT inhibitors, dose response, cell-based, 5-point CRC, membrane potential dye (AID 504840); assay type: functional
T3 sequence (Q9GZV3 whole entry): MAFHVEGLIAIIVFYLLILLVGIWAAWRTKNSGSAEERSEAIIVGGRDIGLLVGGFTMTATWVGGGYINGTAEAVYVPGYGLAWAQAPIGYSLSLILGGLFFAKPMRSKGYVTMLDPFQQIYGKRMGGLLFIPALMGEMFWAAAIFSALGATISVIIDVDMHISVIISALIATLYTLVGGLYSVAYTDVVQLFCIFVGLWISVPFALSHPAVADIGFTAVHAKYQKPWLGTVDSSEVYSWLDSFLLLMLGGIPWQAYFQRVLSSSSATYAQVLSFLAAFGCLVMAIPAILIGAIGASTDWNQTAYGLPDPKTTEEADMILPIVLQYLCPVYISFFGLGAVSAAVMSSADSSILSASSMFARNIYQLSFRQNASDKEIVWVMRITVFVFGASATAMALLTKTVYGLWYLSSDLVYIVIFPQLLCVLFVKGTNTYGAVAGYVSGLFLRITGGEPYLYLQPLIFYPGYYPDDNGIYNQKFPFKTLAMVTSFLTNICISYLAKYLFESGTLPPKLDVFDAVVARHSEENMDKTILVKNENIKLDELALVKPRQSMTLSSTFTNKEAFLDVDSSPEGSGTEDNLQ

Sequence of Nucleotide-binding oligomerization domain-containing protein 2 (Q9HC29 whole entry, the tested form may be a part): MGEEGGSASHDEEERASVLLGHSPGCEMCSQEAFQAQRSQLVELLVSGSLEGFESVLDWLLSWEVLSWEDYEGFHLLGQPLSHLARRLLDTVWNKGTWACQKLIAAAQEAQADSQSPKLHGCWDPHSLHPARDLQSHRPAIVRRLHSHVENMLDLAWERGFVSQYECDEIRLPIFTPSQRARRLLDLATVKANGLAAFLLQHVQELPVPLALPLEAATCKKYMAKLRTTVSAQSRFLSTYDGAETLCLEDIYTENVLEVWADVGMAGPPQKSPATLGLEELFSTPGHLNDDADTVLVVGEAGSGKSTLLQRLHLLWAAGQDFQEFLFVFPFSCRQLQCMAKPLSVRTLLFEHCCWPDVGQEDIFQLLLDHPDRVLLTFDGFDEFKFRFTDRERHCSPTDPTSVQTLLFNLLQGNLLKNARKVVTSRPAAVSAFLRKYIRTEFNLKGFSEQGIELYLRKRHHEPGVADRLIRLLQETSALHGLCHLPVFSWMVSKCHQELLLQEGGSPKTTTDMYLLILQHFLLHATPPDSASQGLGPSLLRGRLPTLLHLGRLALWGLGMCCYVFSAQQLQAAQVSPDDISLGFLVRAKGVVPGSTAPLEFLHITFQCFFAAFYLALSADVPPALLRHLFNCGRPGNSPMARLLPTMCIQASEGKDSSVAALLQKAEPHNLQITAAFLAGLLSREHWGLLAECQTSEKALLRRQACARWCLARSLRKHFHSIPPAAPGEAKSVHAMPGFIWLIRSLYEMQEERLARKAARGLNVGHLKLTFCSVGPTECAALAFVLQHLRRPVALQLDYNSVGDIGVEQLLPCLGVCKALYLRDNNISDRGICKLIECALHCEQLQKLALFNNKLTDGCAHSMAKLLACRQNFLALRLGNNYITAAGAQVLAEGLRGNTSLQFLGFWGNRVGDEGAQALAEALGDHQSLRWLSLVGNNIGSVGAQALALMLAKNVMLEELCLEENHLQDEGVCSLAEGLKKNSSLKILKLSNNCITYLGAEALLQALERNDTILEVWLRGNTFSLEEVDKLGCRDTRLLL
Sequence of Tumor necrosis factor (P01375 whole entry): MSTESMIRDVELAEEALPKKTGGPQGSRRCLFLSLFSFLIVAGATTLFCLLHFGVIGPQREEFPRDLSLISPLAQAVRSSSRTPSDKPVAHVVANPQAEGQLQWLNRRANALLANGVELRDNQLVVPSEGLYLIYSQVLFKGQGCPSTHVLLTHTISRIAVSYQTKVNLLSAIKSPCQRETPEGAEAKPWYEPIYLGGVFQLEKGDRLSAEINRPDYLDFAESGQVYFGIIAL

In the case of `Cc1ccc2c(CC(=O)Nc3ccc(N4CCN(C)CC4)cc3C)coc2c1`, the AC50 (Escherichia coli) was 43.5 µM (active).

With `Cc1ccc2oc(N=C(N)NC(=O)C(C)(C)C)nc2c1` the IC50 (HEK293 [1]) was > 20 µM (inactive), the IC50 [2] was 0.0949 µM (active) and the EC50 [3] was 0.01 µM (active). For the same compound, the IC50 (HEK293 [4]) was 4.71 µM (active), the EC50 (HEK293 [5]) was < 0.31 µM (inactive) and the IC50 (HEK293 [6]) was > 20 µM (inactive). The IC50 (Tumor necrosis factor) was < 0.0391 µM (active), the IC50 (HEK293 [7]) was < 0.312 µM (active) and the IC50 [8] was > 80 µM (inactive). For the same compound, the IC50 (HEK293 [9]) was > 20 µM (inactive) and the EC50 [10] was < 0.16 µM (active).

In the case of `CCCn1c2ccccc2c2cnn(CC(=O)NCCCN3CCCC(C)C3)c(=O)c21` (stereo not drawn), the IC50 [11] was 15.1 µM (active).
